This is an account of results in PubChem BioAssay AID488823 (NMMLSC, 2010).

The experiment has as its system S. cerevisiae LAP4-GFP strain, flow cytometry fluorescence. Nature of the experiment: yeast LAP4 reporter analogs, concentration series – cell-based, cherry pick 3, flow cytometry, SAR follow-up (AID 488823). (In general: Flow cytometry measures light scatter and fluorescence of single cells or particles in a stream.)

Structures are written as SMILES.

As for `Cc1ccc2c(Cl)cc(Cl)c(O)c2n1`, the half-maximal effective concentration (EC50) (commonly the midpoint of the concentration-response curve) was 5.38 µM.
